These results are taken from publication PMC7883726 (Acta Pharmaceutica Sinica. B, 2021).

For this assay, the target named is SARS-CoV-2 RdRp (Severe acute respiratory syndrome coronavirus 2, UniProt P0DTD1). Nature of the assay: biochemical. The note with it: for koff: read-out: kdis. The format is binding.
Setting [1] is: KD, BLI, 1:1 binding model, compounds 3.125–100 μmol/L.
[2] abbreviates: BLI, 1:1 binding model, compounds 3.125–100 μmol/L.

Where two headings read alike, the source gives them in different places.

The kon is a measure of how fast the partners come together. A higher kon goes with faster complex formation. The Kd is the constant that tells how readily two partners part at equilibrium. Low values mean tighter binding, high ones weaker binding. Take `C[C@@H]1O[C@@H](O[C@@H]2[C@@H](O)[C@H](OCCc3ccc(O)c(O)c3)O[C@H](CO)[C@H]2OC(=O)/C=C/c2ccc(O)c(O)c2)[C@H](O)[C@H](O)[C@H]1O` [RAI-S-11, Verbascoside]: the on-rate (kon) came to 108 M⁻¹ s⁻¹ and the koff stood at 9.05e-05 s⁻¹. The molecule further came in with an equilibrium dissociation constant (Kd) under setting [1] of 0.84 ± 0.85 µM.
In the case of `COc1cc(C(=O)NS(=O)(=O)c2ccccc2C)ccc1Cc1cn(C)c2ccc(NC(=O)OC3CCCC3)cc12` [RAI-S-19, Zafirlukast], the on-rate constant (kon) amounted to 8.43 M⁻¹ s⁻¹ and the koff came to 4.99 s⁻¹. The Kd under setting [1] was > 1000 µM.
Take `O=C(Nc1nc(-c2ccc(O)c(O)c2)c(-c2ccccc2)s1)c1ccc(O)c(O)c1` [RAI-S-34, COH29]: the Kd is > 1000 µM, the kdis came to 0.189 s⁻¹ and the on-rate (kon) is 8.10 M⁻¹ s⁻¹.
`CC1(C)CC[C@]2(C(=O)O)CC[C@]3(C)C(=CC[C@@H]4[C@@]5(C)CCC(=O)C(C)(C)[C@@H]5CC[C@]43C)[C@@H]2C1` [RAI-S-35, Oleanonic Acid]: the on-rate constant (kon) is 98.4 M⁻¹ s⁻¹ and the koff was 0.0168 s⁻¹. Also, the Kd under setting [1] turned out to be 171 ± 35.9 µM.
Take `C[C@@H]1O[C@@H](OC[C@H]2O[C@@H](OCCc3ccc(O)c(O)c3)[C@H](O)[C@@H](O)[C@@H]2OC(=O)/C=C/c2ccc(O)c(O)c2)[C@H](O)[C@H](O)[C@H]1O` [RAI-S-36, Forsythoside A]: the Kd was < 50 µM under setting [2] and 1.16 ± 0.44 µM (BLI, 1:1 binding model, compounds 3.125–100 μmol/L, listed as 36). Also, the on-rate constant (kon) (BLI, association rate constant) came out at 137 M⁻¹ s⁻¹. In addition, the kdis (BLI, dissociation rate constant) was determined as 0.000159 s⁻¹.
In the case of `O=C(O[C@@H]1O[C@@H]2COC(=O)c3cc(O)c(O)c(O)c3-c3c(cc(O)c(O)c3O)C(=O)O[C@H]([C@H]1O)[C@@H]2O)c1cc(O)c(O)c(O)c1` [RAI-S-37, Corilagin], the on-rate (kon) was 496 M⁻¹ s⁻¹ and the koff was 0.000268 s⁻¹. The dissociation constant Kd under setting [1] was found to be 0.54 ± 0.01 µM.
Consider `C[C@@H]1O[C@@H](OC[C@H]2O[C@@H](Oc3cc(O)c4c(=O)cc(-c5ccc(O)cc5)oc4c3)[C@H](O[C@@H]3O[C@@H](C)[C@H](O)[C@@H](O)[C@H]3O)[C@@H](O)[C@@H]2O)[C@H](O)[C@H](O)[C@H]1O` [RAI-S-38, Ligustroflavone], for which the KD entry under setting [2] is reported as “did not detect the binding”.
For `Cc1ccc(Oc2nc3cc(-c4ccc(-c5ccccc5)cc4)c(Cl)cc3[nH]2)cc1C(=O)O` [RAI-S-45, MK-3903], binding was put at a Kd of 220 ± 19.4 µM, the kdis stood at 0.0665 s⁻¹ and the kon was determined as 302 M⁻¹ s⁻¹.
For the molecule `O=C(O)CCc1cc(C(=O)c2ccc(OC3CCCC3)cc2O)ccc1OCc1ccc2c(=O)[nH]oc2c1` [RAI-S-47, T-5224], the equilibrium dissociation constant (Kd) was 38.7 ± 1.63 µM, the kdis was 0.00774 s⁻¹ and the kon was 200 M⁻¹ s⁻¹.
